Reference: article PMC8986850, “Development and exploration of novel substituted thiosemicarbazones as inhibitors of aldose reductase via in vitro analysis and computational study” (Scientific Reports, 2022)

What was measured:
ALR2 = molecular target: T1, ALR2 (Bos taurus, UniProt P16116); test: ALR2 enzyme inhibition assay (enzyme extracted from calf lenses); assay type: biochemical, bovine; settings: for IC50: bovine lens ALR2, substrate DL-glyceraldehyde, mean ± SEM of three measurements; for inhibition at 100 µM: bovine lens ALR2, 100 µM inhibitor, read-out: I (%, 100 µM) (ALR2) (converted)
T1 construct: from tissue; host or cells: calf eye lenses
Protocol: Compounds 3a-o were tested against ALR2 to evaluate their inhibitory potential against aldose reductase whereas selectivity was determined via performing ALR1 inhibition assay. For the enzyme inhibition assay, ALR2 and ALR1 were extracted from bovine sources (ALR2 from eyes and ALR1 from kidneys). Moreover, inhibitions studies were also carried out on the expressed ALR2 (human AKR1B1) and inhibition data for ALR2- bovine source and expressed enzyme was compared and analyzed. The protocols for enzyme extraction and expression in the bacterial system are included in the section of “Supporting information”. […] For the purpose of comparison and validation of enzyme inhibition data, these compounds were tested against human AKR1B1 (hAKR1B1) expressed in E. coli BL21 (DE3).
(§1) For the determination of enzyme activity of ALR1 and ALR2, 100 µL of reaction mixture was composed of 20 µL of buffer (100 mM sodium phosphate, pH 6.2), 30 µL of enzyme extract, 20 µL of substrate (10 mM), 20 µL of cofactor (0.1 mM of NADPH) and 10 µL of test compound (1 mM)[6],[21]. The reaction mixture without cofactor was incubated at 32°C for 10 min, then the enzymatic reaction was initiated with the addition of NADPH and monitored for 5 minutes. Similar protocols were followed for ALR1 and ALR2, however the substrate was different for each enzyme, with sodium-D-glucoronate and DL-glyceraldehyde used as the substrates for the ALR1 and ALR2 assays, respectively. […] In addition, similar protocols were adopted for human AKR1B1 that was expressed in E. coli BL21 (DE3), though the determined protein concentration was 12 µg/mL for the expressed enzyme. Detailed protocols for the preparation of ALR1, ALR2 and expressed human AKR1B1 can be found in the supporting information.
(§2) The newly synthesized N-substitute thiosemicarbazones (3a-o) were dissolved in 100% DMSO and diluted with deionized water, keeping the DMSO concentration equal to 0.1% in the assay.
The extraction of ALR2 was carried out from calf lenses via adopting method described in
in (Hayman and Kinoshita 1965) with little modification. The lenses were obtained from slaughterhouse immediately after calf’s slaughtering and stored at -20^◦C until further use. These lense (150-170g) were subjected to homogenization with about three times volume of cold distilled water and then centrifugation was carried out for the homogenate at 10,000 x g for 14 minutes for removal of insoluble lipids particles. Precipitates were discarded and supernatant layer was subjected to 40% saturation of ammonium sulphate and again centrifugation was performed with same parameters for 14 minutes and again precipitates were discarded. […] In the last step, the supernatant was subjected to 75% of saturation with ammonium sulphate to obtain ALR2. Now, the precipitates were collected instead supernatant because precipitated protein was the expected desired ALR2. The precipitated enzyme (ALR2) was redissolved in 50mM solution of sodium chloride and dialyzed for 24 hours against 50mM solution (3.5L) of NaCl. The volume was recorded before and after dialysis, then dialyzed material was treated with liquid nitrogen. The extracted ALR2 was stored in 1mL Eppendorf tube in deep freezer at -80 ^◦C till further enzymatic studies.

human AKR1B1 (hAKR1B1) = molecular target: T2, human AKR1B1 (hAKR1B1) (Homo sapiens, UniProt P15121); test: Inhibition of expressed human AKR1B1 (E. coli BL21 (DE3)); assay type: biochemical; settings: for IC50: human AKR1B1 expressed in E. coli BL21 (DE3), mean ± SEM of three measurements; for inhibition at 100 µM: human AKR1B1 expressed in E. coli, 100 µM inhibitor, read-out: I (%, 100 µM) (AKR1B1)
T2 construct: made in house; host or cells: E. coli BL21 (DE3)
Protocol: For the enzyme inhibition assay, ALR2 and ALR1 were extracted from bovine sources (ALR2 from eyes and ALR1 from kidneys). Moreover, inhibitions studies were also carried out on the expressed ALR2 (human AKR1B1) and inhibition data for ALR2- bovine source and expressed enzyme was compared and analyzed. The protocols for enzyme extraction and expression in the bacterial system are included in the section of “Supporting information”. […] For the purpose of comparison and validation of enzyme inhibition data, these compounds were tested against human AKR1B1 (hAKR1B1) expressed in E. coli BL21 (DE3).
as §1, with “The reaction mixture without cofactor was incubated at 32°C for 10 min, then the enzymatic reaction was initiated with the addition of NADPH and monitored for 5 minutes.” left out
as §2
The expression plasmid for aldose reductase (pDONR223_AKR1B1_WT) was gift from Addgene in stable culture. Streaking of this culture has been carried out on LB Agar plate then incubated overnight, after growth of colonies , inoculation was performed in LB medium then incubated this medium in shaking incubator at 37 °C. After 48 hours turbidity was measured when OD=0.6 then some of bacterial growth was prepared as 50% glycerol stock. Others are subjected to plasmid isolation following method Miniprep. Meanwhile E. Coli BL21 De3 cells were made competent then transformation with extracted plasmid (AKR1B1) had been carried out heat shock method. Transformed cell ( E.Coli BL21 DE3+AKR1B1) were grown in 37 °C in shaking incubator for 48 hr. The selection for transformed cells was carried out with the help of antibiotic (spectinomycin 50µg/ml). […] For the expression of aldose reductase , E.coli BL21DE3 were induced with of IPTG(Isopropyl-d-thiogalactopyranoside)[3]. […] The expressed enzyme was stabilized by addition 10 mM Tris–HCl buffer, 0.5 mM EDTA, 5 mM β-marcaptoethanol at pH 8.0 and 20% (v/v) glycerol. Cells were lysed with lysis buffer and then precipitation with ammonium sulfate up to 80% saturation was done . the expressed enzyme was dialyzed overnight against tris buffer. Protein quantification was performed following Bradford protein assay. Aliqoutes were stored at -80 refrigerator.

ALR1 = molecular target: T3, ALR1 (Bos taurus, UniProt Q3ZCJ2); test: ALR1 enzyme inhibition assay (enzyme extracted from calf kidneys); assay type: biochemical, bovine; settings: bovine kidney ALR1, 100 µM inhibitor; read-out: I (%, 100 µM) (ALR1)
T3 construct: The calf’s kidneys were obtained after slaughtering and dissection; from tissue; host or cells: calf kidneys
Protocol: Compounds 3a-o were tested against ALR2 to evaluate their inhibitory potential against aldose reductase whereas selectivity was determined via performing ALR1 inhibition assay. For the enzyme inhibition assay, ALR2 and ALR1 were extracted from bovine sources (ALR2 from eyes and ALR1 from kidneys). Moreover, inhibitions studies were also carried out on the expressed ALR2 (human AKR1B1) and inhibition data for ALR2- bovine source and expressed enzyme was compared and analyzed. The protocols for enzyme extraction and expression in the bacterial system are included in the section of “Supporting information”. […] For the purpose of comparison and validation of enzyme inhibition data, these compounds were tested against human AKR1B1 (hAKR1B1) expressed in E. coli BL21 (DE3). We found a similar pattern of enzyme inhibition for the synthesized compounds against extracted enzyme (ALR2) as well as expressed enzyme (hAKR1B1).
as §1, §2
The calf’s kidneys were obtained after slaughtering and dissection, dissolved in 3 volumes of sodium phosphate buffer (10mM) which is composed of 2.0 mM EDTA, 2.5mM β-mercaptoethanol, 0.25M solution of sucrose at pH 7.25. First, the homogenisation was carried out then centrifugation of the homogenate was performed at 12000 x g at 0-2^◦C for 30 minutes. The precipitates containing insoluble lipids were discarded and the collected supernatant layer was treated with 40% saturation of ammonium sulphate. This liquid mixture was subjected to centrifugation at 11000 x g at 0-2^◦C for 30 minutes. Now, precipitates were again discarded and supernatant was collected and treated with 50% ammonium sulphate and procedure was repeated in the same manner as in previous step. In the last step, the saturation of ammonium sulphate was increased up to 75% and supernatant was subjected to same parameter of centrifugation. At this final step, precipitates were obtained and supernatant layer was discarded. The obtained material of precipitates was composed of ALR1and redissolved in initial buffer that was used during homogenisation. Finally, material was dialyzed overnight with same buffer system. The dialyzed fractions containing ALR1 were stored at -80^◦C for further use[5].

[1] = DPPH radical scavenging activity; settings: 100 µM compound, methanolic DPPH 0.025 mg/mL, 517 nm
Protocol: DPPH (2,2-diphenyl-1-picrylhydrazyl) was used to explore the free radical quenching ability of 3a-o so as to provide a gauge of their antioxidant potential. The experiment was conducted according to a previously reported protocol with slight modifications. Percent free radical scavenging activities (% FRSA) of 3a-o were determined by spectrophotometric analysis at 517 nm using a homogenous mixture of methanolic DPPH (0.025 mg/mL) and a 100 µM solution of the tested compound, with ascorbic acid used as a positive control (Fig. 3).

T3 sequence (Q3ZCJ2 whole entry): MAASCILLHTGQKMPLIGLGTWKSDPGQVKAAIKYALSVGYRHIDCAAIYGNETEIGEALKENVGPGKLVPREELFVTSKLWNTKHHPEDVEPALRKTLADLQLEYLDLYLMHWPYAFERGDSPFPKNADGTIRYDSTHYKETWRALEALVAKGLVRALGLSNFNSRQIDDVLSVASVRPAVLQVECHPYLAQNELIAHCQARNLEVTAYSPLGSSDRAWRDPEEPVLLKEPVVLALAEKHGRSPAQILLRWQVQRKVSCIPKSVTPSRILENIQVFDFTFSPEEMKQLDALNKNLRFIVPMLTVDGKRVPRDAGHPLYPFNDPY

CC(C)(C)c1cc(C=NNC(=S)NCc2ccc(Cl)cc2)c(O)c(C(C)(C)C)c1 [Compound 3f, N-(4-chlorobenzyl)-2-(3,5-di-tert-butyl-2-hydroxybenzylidene)hydrazine carbothioamide]
IC50 (ALR2): 3.12 ± 0.0031 µM | IC50 (human AKR1B1 (hAKR1B1)): 3.04 ± 0.0034 µM | inhibition at 100 µM (ALR1): 4.27 to 26.2% | % FRSA (percent free radical scavenging activity) [1]: 82.98% | melting point: 184 to 186 °C

CC(C)(C)c1cc(C=NNC(=S)Nc2cccc(Cl)c2Cl)c(O)c(C(C)(C)C)c1 [Compound 3j, 2-(3,5-di-tert-butyl-2-hydroxybenzylidene)-N-(2,3-dichlorophenyl)hydrazine carbothioamide]
IC50 (ALR2): 4.01 ± 0.0021 µM | IC50 (human AKR1B1 (hAKR1B1)): 2.75 ± 0.003 µM | inhibition at 100 µM (ALR1): 4.27 to 26.2% | % FRSA (percent free radical scavenging activity) [1]: 89.75% | melting point: 193 to 195 °C

Cc1ccc(NC(=S)NN=Cc2cc(C(C)(C)C)cc(C(C)(C)C)c2O)cc1 [Compound 3k, 2-(3,5-di-tert-butyl-2-hydroxybenzylidene)-N-(p-tolyl)hydrazinecarbothioamide]
inhibition at 100 µM (ALR2): ≤ 44.6% | inhibition at 100 µM (human AKR1B1 (hAKR1B1)): 41.2% | inhibition at 100 µM (ALR1): ≤ 31.6% | % FRSA (percent free radical scavenging activity) [1]: 86.60% | melting point: 186 to 188 °C

CC(C)(C)c1cc(C=NNC(=S)NCCc2ccccc2)c(O)c(C(C)(C)C)c1 [Compound 3o, 2-(3,5-di-tert-butyl-2-hydroxybenzylidene)-N-phenethylhydrazinecarbothioamide]
inhibition at 100 µM (ALR2): ≤ 39.1% | inhibition at 100 µM (human AKR1B1 (hAKR1B1)): 24.9% | inhibition at 100 µM (ALR1): ≤ 29.9% | % FRSA (percent free radical scavenging activity) [1]: 83.02% | melting point: 174 to 176 °C
